Measured values taken from patent publication US20230414759A1, “NOVEL CYCLIC PEPTIDES BASED ON NANOBIOSTRUCTURAL CONTROL, PEPTIDESOMES WITH CORE/SHELL STRUCTURE COMPRISING SAME, AND USES THEREOF” (UIF (University Industry Fpimdatopm), Yonsei University, priority 2022, published 2023).

How the values were obtained:
[1] = cited from earlier work
SCC7 cell-derived cancer = assay: In-vivo antitumor efficacy (PDT) in xenograft mouse model; conditions: after 14 days
Description: SCC7 tumor-bearing mouse models were prepared similarly to the biodistribution analysis. When the tumor volume reached approximately 50 mm^3, the sample was intravenously injected into the xenograft mice. 3 hours after the sample injection, NIR laser (671 nm) was irradiated to the tumor site with a power of 0.53 W/cm^2 for 15 minutes, and the same sample injection and NIR irradiation were repeated on the next day. The tumor volume and body weight were recorded every two days. At the end of the therapy, major organs and tumors were dissected for histological analysis. […]
Squamous cell carcinoma 7 (SSC7) cells were cultured in an RPMI 1640 medium containing 10% FBS, 1% L-glutamine, 1% penicillin, streptomycin, etc. in a 37° C. incubator maintained at 5% carbon dioxide. The cultured cells were detached from the bottom of the flask using trypsin/EDTA and cell viability was evaluated by trypan blue exclusion assay. […]
After the injection of the sample to each group, tumor volume and body weight were recorded 2 days, 4 days, 6 days, 8 days, 10 days, 12 days and 14 days later. […] The organs and cancer tissues were fixed, prepared into cryosections, stained with hematoxylin and eosin (H&E) and observed with a fluorescence microscope (Axiolmager A1, Zeiss, Germany).

SCC7 cells [2] = assay: Photodynamic killing of cancer cells, MTT assay after laser irradiation; format: cell-based; conditions: 24 hours, IR laser 671 nm 1.59 J/cm^2, peptidesome in DW
Description: SSC7 (squamous cell carcinoma 7) cells were treated with free Pa or the coassembled peptidesome of Example 4-6d (R6:RGD2<-Pa) (1:9) at 30 μM for 24 hours, followed by infrared (IR) laser (671 nm) irradiation at 1.59 J/cm^2. Cytotoxicity as a measure of the photodynamic killing of the cancer cells was determined by MTT assay.
As the samples, 2 μg/mL of free Pa, 2 μg/mL of the coassembled peptidesome of Example 4-6d (R6:RGD2<-Pa) (1:9) (G&G) and 2 μg/mL of the coassembled peptidesome of Example 4-6d (R6:RGD2<-Pa) (1:9) (DW) were used. DW means that distilled water was used instead of the G&G solution.

SCC7 cells [3] = assay: Cellular uptake by CLSM and flow cytometry (FACS); format: cell-based; conditions: 2 μg/mL, 4 hours
Description: Analysis of intracellular delivery efficiency and FACS in vitro Cellular uptake of materials in SCC7 cells was analyzed based on the intrinsic fluorescence of Pa via CLSM (LSM700, Carl Zeiss, Germany) and flow cytometry (FACS Canto II, BD Biosciences, Bedford, MA, USA). SCC7 cells were seeded onto a 24-well plate at a density of 5×10^4 and incubated overnight. Then, […] of a sample was added to […] of a culture medium for each well. The cells were treated with the sample for 4 hours. Then, the sample was removed and the cells were washed. For cell imaging, cell nuclei were stained with Hoechst 33342.
SCC7 cells were seeded in a 24-well plate at a density of 5×10^4 and incubated overnight. Then, […] of the sample was added to […] of a culture medium. The cells were treated with the sample for 4 hours, followed by removal of the sample and washing. For cell imaging, the cell nuclei were stained with Hoechst 33342. The uptake of materials by the SCC7 cells was analyzed based on the intrinsic fluorescence of Pa via CLSM (LSM700, Carl Zeiss, Germany) and flow cytometry (FACS Canto II, BD Biosciences, Bedford, MA, USA).
As the samples, 2 μg/mL of free Pa, 2 μg/mL of the coassembled peptidesome of Example 4-6d (R6:RGD2<-Pa) (1:9) (G&G) and 2 μg/mL of the coassembled peptidesome of Example 4-6d (R6:RGD2<-Pa) (1:9) (DW) were used. […]

[4] = Average hydrodynamic diameter of peptidesomes by DLS at different temperatures; format: physicochemical; conditions: distilled water, 20-40° C.
Description: The size of self-assembled nanoparticles (SNPs) was analyzed by a dynamic light scattering size distributor (particle size & zeta potential analyzer, ELS-1000ZS, Otsuka Electronics, Japan) using a UV-transparent cuvette having a path length of 1 cm. The secondary structure of the cyclic peptides of SPNs was analyzed using a Chirascan circular dichroism spectrometer equipped with a Peltier temperature controller (Applied Photophysics, UK). The CD (circular dichroism) spectra of samples were analyzed in a range of 190-260 nm using a cuvette having a path length of 2 mm. The molar residue ellipticity of the samples was calculated per amino acid residue. All mouse experiments were conducted under an animal protocol approved by the Catholic University of Korea on Laboratory Animal Care (2020-0359-05).
It was confirmed from the foregoing experiment that the cyclic peptides prepared in Examples 2-1 to 2-3 form vesicular self-assembled structure when stored in distilled water (DW). The average hydrodynamic diameter (Dn) of the self-assembled structures was measured by dynamic light scattering (DLS) at different temperatures (20° C., 30° C., 40° C.).

pheophorbide a [free Pa]
water solubility [1]: 14 µg/mL
weight of the excised tumor (SCC7 cell-derived cancer; 2 mg/kg, tail vein, NIR laser): 1,222 mg
excised tumor weight of free Pa group relative to peptidesome<-Pa(G&G) group (SCC7 cell-derived cancer): approximately 3 times
PDT effect (cell viability after laser irradiation) (SCC7 cells [2]): dose-dependent PDT effect
cell internalization efficiency of free Pa relative to the coassembled peptidesome (SCC7 cells [3]): 5 fold

CCCCCCCCCCCC(=O)N[C@H]1CCCCNC(=O)[C@H](Cc2c[nH]c3ccccc23)NC(=O)CCC(=O)NCCOCCOCCNC(=O)[C@H](CCCNC(=N)N)NC(=O)[C@H](CCCNC(=N)N)NC(=O)CCC(=O)NCCOCCOCCNC(=O)[C@H](Cc2c[nH]c3ccccc23)NC1=O [Example 2-1]
average diameter of peptidesome (DLS) [4]: 99-127 nm
